Results on four molecules are retold here after US20060189673A1, “Phenylazole compound, production process therefor and antioxidant” (Nippon Soda Co., Ltd., priority 2003, published 2006).

Experiment [1] deals with lipid peroxide in homogenates of brain, heart and kidneys. Nature of the experiment: Tissue migration: antioxidative action on lipids ex vivo in tissue homogenates after intraperitoneal administration. As to conditions: Rattus norvegicus, ip, 0.5 h, male SD rats, 100 mg/kg intraperitoneally, 30 minutes after administration. Here is the method:
(§1) The antioxidative action on lipids in vitro of the compounds according to the present invention was evaluated in accordance with the method of Malvy et al. (Malvy C. et al.,) described in Biochemical and Biophysical Research Communications, 1980, vol. 95, pp. 734 to 737,) by measuring the lipid peroxide activity in a rat brain homogenate. Namely, the rat brain was removed followed by the addition of five volumes of an aqueous solution of phosphate buffered saline (pH 7.4) (hereinafter, abbreviated as PBS) to the brain while cooling with water, homogenizing with a Teflon homogenizer, and centrifuging for 20 minutes at 10,000 g to collect the supernatant as a brain homogenate. 500 μM cysteine, 5 μM ferrous sulfate, and 100 mM KCl were added to the resulting brain homogenate followed by incubating for 30 minutes at 37° C. and measuring the malondialdehyde that formed due to decomposition of lipid peroxide using the thiobarbituric acid method. The 50% inhibitory concentrations (hereinafter, abbreviated as IC50) of the compounds according to the present invention were then determined from the measured values.
Tissue migration of the compounds according to the present invention was evaluated by measuring the antioxidative action on lipids ex vivo. A test compound dissolved or suspended in an aqueous physiological saline solution or aqueous physiological saline solution containing 1% polyethylene hardened castor oil (Nikko Chemicals: Nikkol HCO-60) was intraperitoneally administered to male SD rats (age: 6 weeks) (purchased from Japan SLC) in groups of 3 animals each at a dose of 100 mg/kg. The animals were sacrificed by exsanguination by severing the carotid artery 30 minutes after administration followed by removing the brain, heart and kidneys. The lipid peroxide activity of homogenates of each tissue was measured using the method described in Example 3. The inhibition rates of the test compounds in each tissue were determined from the amounts of lipid peroxide formed in a control group (physiological saline dose group) and test compound groups.

Experiment [2] deals with mice administered ferrous chloride into the spinal subarachnoid cavity. Nature of the experiment: Antioxidative action in vivo: abnormal behavior and mortality after ferrous chloride into the spinal subarachnoid cavity. The arrangement: species or system mouse. The note with it: male ICR mice, 30 minutes before ferrous chloride, score after 60 minutes. On the procedure:
The antioxidative action in vivo of the compounds according to the present invention was evaluated according to the method described in the Journal of Medical Chemistry (J. Med. Chem., 1997, vol. 40, pp. 559 to 573) based on the inhibitory effects on abnormal behavior and mortality rate following administration of ferrous chloride into the spinal subarachnoid cavity of mice. Male S1c:ICR mice (age: 5 weeks) (purchased from Japan SLC) were used in groups of 3 to 7 animals each, and were administered 5 μl of aqueous physiological saline solution containing 50 mM ferrous chloride into the spinal column between the 5th and 6th lumbar vertebra. […] The test compounds were dissolved or suspended in an aqueous physiological saline solution or an aqueous physiological saline solution containing 1% polyethylene hardened castor oil (manufactured by Nikko Chemicals CO., LTD. under the name of NIKKOL HCO-60), and administered intraperitoneally or orally 30 minutes before the administration of ferrous chloride. The 50% inhibitory dose (hereinafter, abbreviated as ID50) of each test compound was determined from the score of a control group (physiological saline treated group) and the score of each test compound treated group.

For experiment [3], the system named is lipid peroxides in retina homogenate. Nature of the experiment: Retina migration: formation of lipid peroxides in retina ex vivo after oral administration. The note with it: male SD rats, retinas removed 30 minutes later, auto-oxidized 1 hour at 37° C. The arrangement: species or system rat. Here is the method: The retina migration of the compounds according to the present invention was evaluated. The test compounds dissolved or suspended in 0.1 N aqueous hydrochloric acid solution or 1% polyethylene hardened castor oil (Nikkol HCO-60) solution were orally administered to male SD rats (age: 6 weeks) in groups of three animals each followed by removing both eyes 30 minutes later and separating the retinas while cooling with ice. The retinas were homogenized with a Polytron Microhomogenizer (NS-310E: manufactured by Niti-On Medical and Physical Instruments) in 0.1 M Tris-HCl buffer (pH 7.4) while cooling with ice to prepare 5% homogenates. The homogenates were then auto-oxidized for 1 hour at 37° C., and the amounts of lipid peroxide that formed were quantified using the thiobarbituric acid method (Masugi, et al., Vitamin, 51, 21 to 29, 1977).

For experiment [4], the system named is lipid peroxide in rat brain homogenate. Nature of the experiment: Antioxidative action on lipids in vitro (lipid peroxide activity in rat brain homogenate, thiobarbituric acid method). The note with it: 500 μM cysteine, 5 μM ferrous sulfate, 100 mM KCl, 30 minutes at 37° C., malondialdehyde, read-out: 50% inhibitory concentration of anti-lipid peroxide action in vitro (IC50). Format: biochemical. On the procedure: as §1

Experiment [5] addresses T1, 5-lipoxygenase (5-LO) (Homo sapiens, UniProt P09917).
T1 construct: human peripheral blood mononuclear cells; endogenous in cells; host or cells: human peripheral blood mononuclear cells
T1 sequence (P09917 1-674): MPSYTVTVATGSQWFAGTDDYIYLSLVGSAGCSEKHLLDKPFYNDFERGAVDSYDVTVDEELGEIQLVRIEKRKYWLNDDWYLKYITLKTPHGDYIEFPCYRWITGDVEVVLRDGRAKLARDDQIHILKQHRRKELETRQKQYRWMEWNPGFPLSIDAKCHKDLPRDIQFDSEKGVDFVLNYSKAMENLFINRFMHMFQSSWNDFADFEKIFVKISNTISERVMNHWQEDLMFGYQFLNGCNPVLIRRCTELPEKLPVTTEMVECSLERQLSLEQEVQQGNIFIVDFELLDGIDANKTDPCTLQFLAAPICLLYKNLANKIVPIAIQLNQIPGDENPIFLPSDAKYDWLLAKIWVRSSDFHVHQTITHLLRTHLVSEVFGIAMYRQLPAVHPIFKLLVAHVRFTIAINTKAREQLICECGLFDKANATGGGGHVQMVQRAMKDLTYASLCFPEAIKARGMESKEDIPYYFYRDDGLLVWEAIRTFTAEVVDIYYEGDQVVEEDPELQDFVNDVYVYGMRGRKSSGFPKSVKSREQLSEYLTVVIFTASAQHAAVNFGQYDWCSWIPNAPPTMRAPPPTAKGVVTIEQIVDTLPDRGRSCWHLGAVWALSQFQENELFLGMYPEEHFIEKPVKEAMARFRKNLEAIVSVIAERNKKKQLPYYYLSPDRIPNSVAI
Nature of the experiment: 5-LO inhibitory activity (leucotriene B4 formation in human peripheral blood mononuclear cells, A23187). It is filed as cell-based. As to conditions: 30 μM A23187, read-out: Lipoxygenase inhibitory action 50% inhibitory concentration (IC50 μm) 5-LO. Here is the method: 5-LO inhibitory activity was measured using a variation of the method of Carter et al. (Carter G. W. et al., J. Pharmacol. Exp. Ther., 256, 929 to 937, 1991). Namely, after pre-incubating (37° C., 15 minutes) in Hank's solution human peripheral blood mononuclear cells and a test compound dissolved in DMSO (final concentration: 1%), 30 μM A23187 was added and the resulting solution was additionally incubated (37° C., 30 minutes). The resulting leucotriene B4 that formed was quantified by enzyme immunoassay, and the 50% formation inhibitory concentration (μM) of the test compound with respect to 5-LO was calculated from that value.

Experiment [6] concerns the target T2, 15-lipoxygenase (15-LO) (Oryctolagus cuniculus, UniProt P12530).
T2 construct: 15-LO obtained from rabbit reticulocytes; from tissue; host or cells: rabbit reticulocytes
T2 sequence (P12530 1-663): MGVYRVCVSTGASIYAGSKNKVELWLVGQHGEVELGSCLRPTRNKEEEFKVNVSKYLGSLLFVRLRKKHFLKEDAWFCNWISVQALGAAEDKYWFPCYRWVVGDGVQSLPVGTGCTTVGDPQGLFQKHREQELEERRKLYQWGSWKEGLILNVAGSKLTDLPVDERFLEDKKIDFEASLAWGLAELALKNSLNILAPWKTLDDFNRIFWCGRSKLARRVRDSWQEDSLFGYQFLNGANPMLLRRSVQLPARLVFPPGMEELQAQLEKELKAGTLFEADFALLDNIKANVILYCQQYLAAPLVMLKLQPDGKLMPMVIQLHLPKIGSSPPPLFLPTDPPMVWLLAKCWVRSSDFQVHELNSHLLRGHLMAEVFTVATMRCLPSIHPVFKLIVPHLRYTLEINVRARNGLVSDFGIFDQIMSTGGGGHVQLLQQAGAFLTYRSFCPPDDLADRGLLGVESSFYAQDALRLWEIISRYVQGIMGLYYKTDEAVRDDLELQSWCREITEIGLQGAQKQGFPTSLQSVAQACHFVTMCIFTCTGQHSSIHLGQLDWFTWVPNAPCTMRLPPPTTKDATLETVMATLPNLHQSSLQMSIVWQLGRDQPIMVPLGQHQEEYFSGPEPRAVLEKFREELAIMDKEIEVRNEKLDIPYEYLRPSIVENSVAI
Nature of the experiment: 15-LO inhibitory activity (15-LO from rabbit reticulocytes, linoleic acid, 15-HETE formation). It is filed as biochemical. The note with it: 256 μM linoleic acid, 4° C., read-out: Lipoxygenase inhibitory action 50% inhibitory concentration (IC50 μm) 15-LO. Here is the method: 15-LO inhibitory activity was measured using a variation of the method of Auerbach et al. (Auerbach B. J. et al., Anal. Biochem., 201, 375 to 380, 1992). Namely, after pre-incubating (4° C., 15 minutes) in phosphate buffer (pH 7.4) 15-LO obtained from rabbit reticulocytes and a test compound dissolved in DMSO (final concentration: 1%), 256 μM linoleic acid was added and the resulting solution was additionally incubated (4° C., 10 minutes). The resulting 15-HETE that formed was quantified by spectrophotometry (OD660 nm), and the 50% formation inhibitory concentration (μM) of the test compound with respect to 15-LO was calculated from that value.

Where [7] appears, read: brain, read-out: Inhibition rate of ex vivo anti-lipid peroxide action (%) Brain.
The mark [8] stands for this setting: heart, read-out: Inhibition rate of ex vivo anti-lipid peroxide action (%) Heart.
Where [9] appears, read: kidney, read-out: Inhibition rate of ex vivo anti-lipid peroxide action (%) Kidney.

Like-named read-outs stand apart in the source and are kept apart here. Where only a bound is given, the exact number is not on record here.

The term inhibition denotes the share of the control response that was lost under treatment. Turning to `Cc1c(C)c2c(c(C)c1N)CC(C)(C(=O)Nc1ccc(-n3ccnc3)cc1)O2` (racemic) [Compound 1, (±)-(5-amino-2,4,6,7-tetramethyldihydrobenzofuran-2-yl)-N-[4-(imidazol-1-yl)phenyl]carboxamide], the inhibition at 100 mg/kg in experiment [1] (setting [7]) was 83%; in experiment [1] (setting [8]), 80%; in experiment [1] (setting [9]), 87%. The “Antioxidative action in vivo 50% inhibitory dose (ID50 mg/kg) Intraperitoneal administration” value in experiment [2] is reported as 6.8 mg/kg. For the same molecule, the “Antioxidative action in vivo 50% inhibitory dose (ID50 mg/kg) Oral administration” value in experiment [2] turned out to be 9.7 mg/kg. Besides, the “Inhibitory effect on formation of lipid peroxides in retina ex vivo 30% inhibitory concentration (ID30 mg/kg, oral administration)” value in experiment [3] was 16 mg/kg.

`Cc1c(C)c2c(c(C)c1N)CC(C)(C(=O)Nc1ccc(-c3ccn[nH]3)cc1)O2` (stereo not drawn) [Compound 37]: the results for the IC50 in experiment [4], in experiment [5] and in experiment [6] were 800 nM, 230 nM and 2060 nM, respectively. The figures for the inhibition at 100 mg/kg in experiment [1] (setting [7]), in experiment [1] (setting [8]) and in experiment [1] (setting [9]) were 95%, 87% and 89%, respectively. The “Antioxidative action in vivo 50% inhibitory dose (ID50 mg/kg) Intraperitoneal administration” value in experiment [2] was found to be 12 mg/kg. In addition, the “Antioxidative action in vivo 50% inhibitory dose (ID50 mg/kg) Oral administration” value in experiment [2] is given as 27 mg/kg. In experiment [3], the “Inhibitory effect on formation of lipid peroxides in retina ex vivo 30% inhibitory concentration (ID30 mg/kg, oral administration)” value is recorded as 5.2 mg/kg.

As for `Cc1c(C)c2c(c(C)c1O)CC(C)(OC=Nc1ccc(-n3ccnc3)cc1)O2` (stereo not drawn) [Control drug 1, reference compound], in experiment [4], the IC50 turned out to be 230 nM. The inhibition at 100 mg/kg in experiment [1] (setting [7]) is 68%; in experiment [1] (setting [8]), 59%; in experiment [1] (setting [9]) it was 75%. In addition, the “Antioxidative action in vivo 50% inhibitory dose (ID50 mg/kg) Intraperitoneal administration” value in experiment [2] is listed as over 30 mg/kg. Moreover, the “Antioxidative action in vivo 50% inhibitory dose (ID50 mg/kg) Oral administration” value in experiment [2] is over 30 mg/kg.

For the molecule `Cc1c(C)c2c(c(C)c1O)CCC(C)(OC=Nc1ccc(-n3ccnc3)cc1)O2` (stereo not drawn) [Control drug 2, reference compound], in experiment [4], the IC50 was 230 nM. In addition, the inhibition at 100 mg/kg in experiment [1] (setting [7]) was found to be 45%; in experiment [1] (setting [8]) it was 57%; in experiment [1] (setting [9]) it was 84%. The “Antioxidative action in vivo 50% inhibitory dose (ID50 mg/kg) Intraperitoneal administration” value in experiment [2] amounted to 20 mg/kg. In addition, in experiment [2], the “Antioxidative action in vivo 50% inhibitory dose (ID50 mg/kg) Oral administration” value was determined as 53 mg/kg.
